Source: patent publication US20260193239A1, “NOVEL COMPOUNDS” (Hoffmann-La Roche Inc., priority 2023, published 2026)

Legend:
[1] = molecular target: T1, P-gp (Homo sapiens, UniProt P08183); test: Transcellular P-gp assay; type: in vitro ADME; conditions: LLC-PK1 cells over-expressing human P-gp; for Papp: read-out: Permeation
T1 construct: expressed in transfected cells; host or cells: LLC-PK1 cells (porcine kidney epithelial cells)
Description: The general assay uses transfected LLC-PK1 cells (porcine kidney epithelial cells) over-expressing human or mouse P-gp, cultured on 96 well semi-permeable filter membrane plates, where they form a polarized monolayer with tight junctions, and act as a barrier between the apical and basolateral compartment.
P-gp is expressed in the apical-facing membrane of the monolayer.
The tightness of the cell monolayer and functional activity of P-gp are confirmed by addition of a cell-impermeable marker, Lucifer yellow, and a reference P-gp substrate, edoxaban, respectively.

[2] = molecular target: T2, NLRP3 (Homo sapiens, UniProt Q96P20); test: THP-1 cells pyroptosis assay; type: cell-based; set-up: Seed THP-1 cells (25,000 cells/well) containing 1.0 μg/ml LPS; host or cells: THP-1 cells, LPS-primed and nigericin-stimulated; conditions: 1 μg/ml LPS, nigericin 5 μM, resazurin readout
Experimental: The cells were routinely passaged and grown to confluency (~10^6 cells/ml). On the day of the experiment, THP-1 cells were harvested and resuspended into RPMI medium (without FBS). […] To this diluted cell solution was added LPS (Sigma #L4524) to give a 1 μg/ml Final Assay Concentration (FAC). 40 μl of the final preparation was aliquoted into each well of a 96-well plate. The plate thus prepared was used for compound screening.

[3] = molecular target: T2, NLRP3; test: Human whole blood IL-1β release assay; type: cell-based; set-up: Human whole blood in Li-heparin tubes was obtained from healthy donors; from tissue; host or cells: human whole blood from healthy donors, LPS-primed and nigericin-stimulated; conditions: 1 μg/ml LPS, nigericin 10 μM, IL-1β by AlphaLisa
Description: For systemic delivery, the ability to inhibit NLRP3 when the compounds are present within the bloodstream is of great importance. For this reason, the NLRP3 inhibitory activity of a number of compounds in human whole blood was investigated in accordance with the following protocol.
Human whole blood in Li-heparin tubes was obtained from healthy donors from a volunteer donor panel.

T1 sequence (P08183 whole entry): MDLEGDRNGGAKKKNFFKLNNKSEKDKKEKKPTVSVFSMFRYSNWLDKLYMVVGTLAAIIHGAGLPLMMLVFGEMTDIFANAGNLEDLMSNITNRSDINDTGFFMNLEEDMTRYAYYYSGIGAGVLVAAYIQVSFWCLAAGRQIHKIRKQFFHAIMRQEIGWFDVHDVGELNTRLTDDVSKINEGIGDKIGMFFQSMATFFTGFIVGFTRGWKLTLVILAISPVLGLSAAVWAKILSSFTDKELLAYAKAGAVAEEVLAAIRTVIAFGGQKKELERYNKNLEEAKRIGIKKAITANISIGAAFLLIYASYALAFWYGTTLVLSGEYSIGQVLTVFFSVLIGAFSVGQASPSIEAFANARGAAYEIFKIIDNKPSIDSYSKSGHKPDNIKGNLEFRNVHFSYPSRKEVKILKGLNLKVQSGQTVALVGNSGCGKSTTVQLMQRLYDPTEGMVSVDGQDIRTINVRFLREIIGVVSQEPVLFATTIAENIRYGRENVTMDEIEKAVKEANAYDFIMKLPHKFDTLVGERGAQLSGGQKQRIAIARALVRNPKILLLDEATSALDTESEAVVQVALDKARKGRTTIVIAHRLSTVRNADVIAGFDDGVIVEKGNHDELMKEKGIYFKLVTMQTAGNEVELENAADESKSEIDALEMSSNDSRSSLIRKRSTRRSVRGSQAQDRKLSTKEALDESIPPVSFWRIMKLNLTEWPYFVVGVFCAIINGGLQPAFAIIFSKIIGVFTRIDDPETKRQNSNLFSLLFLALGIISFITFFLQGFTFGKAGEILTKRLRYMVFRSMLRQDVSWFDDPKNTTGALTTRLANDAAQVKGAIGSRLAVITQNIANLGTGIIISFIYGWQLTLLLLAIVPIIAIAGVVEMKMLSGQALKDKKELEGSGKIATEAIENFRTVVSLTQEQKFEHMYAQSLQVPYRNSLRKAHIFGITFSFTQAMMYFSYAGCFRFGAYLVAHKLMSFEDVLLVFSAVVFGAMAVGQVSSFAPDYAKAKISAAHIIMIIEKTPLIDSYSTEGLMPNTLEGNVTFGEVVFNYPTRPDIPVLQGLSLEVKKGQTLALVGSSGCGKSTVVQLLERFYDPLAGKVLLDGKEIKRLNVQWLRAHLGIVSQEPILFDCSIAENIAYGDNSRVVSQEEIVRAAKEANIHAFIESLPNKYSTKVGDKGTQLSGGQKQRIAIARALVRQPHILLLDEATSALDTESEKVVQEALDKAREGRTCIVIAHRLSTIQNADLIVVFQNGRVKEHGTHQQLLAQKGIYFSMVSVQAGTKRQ
T2 sequence (Q96P20 whole entry): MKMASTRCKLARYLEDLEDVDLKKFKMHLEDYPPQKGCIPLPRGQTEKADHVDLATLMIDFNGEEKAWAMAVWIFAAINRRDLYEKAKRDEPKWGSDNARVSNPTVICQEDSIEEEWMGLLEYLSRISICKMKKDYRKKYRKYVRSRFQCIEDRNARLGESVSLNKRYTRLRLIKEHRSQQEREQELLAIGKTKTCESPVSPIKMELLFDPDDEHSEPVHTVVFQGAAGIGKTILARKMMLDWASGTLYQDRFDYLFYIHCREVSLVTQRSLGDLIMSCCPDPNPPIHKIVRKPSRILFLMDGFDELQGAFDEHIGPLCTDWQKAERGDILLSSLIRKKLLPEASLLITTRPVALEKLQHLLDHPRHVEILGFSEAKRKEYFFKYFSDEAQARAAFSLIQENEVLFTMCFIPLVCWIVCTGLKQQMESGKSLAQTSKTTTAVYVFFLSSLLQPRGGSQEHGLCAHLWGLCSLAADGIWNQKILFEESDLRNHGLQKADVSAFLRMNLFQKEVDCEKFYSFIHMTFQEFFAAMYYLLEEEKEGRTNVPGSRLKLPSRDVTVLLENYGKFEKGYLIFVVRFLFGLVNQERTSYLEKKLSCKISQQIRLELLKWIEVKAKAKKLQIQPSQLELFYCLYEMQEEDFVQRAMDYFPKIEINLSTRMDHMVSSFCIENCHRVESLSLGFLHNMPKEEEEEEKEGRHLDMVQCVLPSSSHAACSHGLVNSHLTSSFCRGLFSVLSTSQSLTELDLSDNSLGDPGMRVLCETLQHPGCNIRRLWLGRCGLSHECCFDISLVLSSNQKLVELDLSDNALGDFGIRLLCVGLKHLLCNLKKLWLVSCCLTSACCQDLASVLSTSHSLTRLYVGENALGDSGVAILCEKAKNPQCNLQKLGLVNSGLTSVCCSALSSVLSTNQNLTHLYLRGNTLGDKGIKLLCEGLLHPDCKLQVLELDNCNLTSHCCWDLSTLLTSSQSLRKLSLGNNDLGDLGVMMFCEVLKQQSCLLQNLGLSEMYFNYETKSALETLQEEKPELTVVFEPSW

| SMILES | efflux ratio [1] | Papp [1] | IC50 [2] | IC50 [3] | Permeation [1] |
| --- | --- | --- | --- | --- | --- |
| CCN1CCC[C@@H](Nc2nnc(-c3c(C)cc4c(c3O)CCO4)n(C)c2=O)C1 (single isomer, unassigned) [Example 3b] | 10 | 5.3 ×10⁻⁶ cm/s |  |  |  |
| CCN1CCC[C@@H](Nc2nnc(-c3c(C)cc(C(F)(F)F)cc3O)n(C)c2=O)C1 (atropisomer, axis not shown) [Reference Example RE-B, 6-[[(3R)-1-Ethyl-3-piperidyl]amino]-3-[2-hydroxy-6-methyl-4-(trifluoromethyl)phenyl]-4-methyl-1,2,4-triazin-5-one, reference compound] | 7.6 | 5.6 ×10⁻⁶ cm/s |  |  |  |
| CCc1cc2c(c(O)c1-c1nnc(N[C@@H]3CCCN(CCO)C3)c(=O)n1C)CCO2 (atropisomer, axis not shown) [Example 8b, P-3-(6-ethyl-4-hydroxy-2,3-dihydrobenzofuran-5-yl)-6-[[(3R)-1-(2-hydroxyethyl)-3-piperidyl]amino]-4-methyl-1,2,4-triazin-5-one] | 1 | 0.9 ×10⁻⁶ cm/s | 16 nM | 64 nM |  |
| CCN1CCC[C@@H](Nc2nnc(-c3c(CO)cc4c(c3O)CCO4)n(C)c2=O)C1 (atropisomer, axis not shown) [Example 5, 3-[4-Hydroxy-6-(hydroxymethyl)-2,3-dihydrobenzofuran-5-yl]-4-methyl-6-[[(3R)-1-ethyl-3-piperidyl]amino]-1,2,4-triazin-5-one] |  |  | 139 nM |  |  |
| CCN1CCC[C@@H](Nc2nnc(-c3c(CO)cc4c(c3O)CCO4)n(C)c2=O)C1 (single isomer, unassigned) [Example 5b, (P or M)-3-[4-Hydroxy-6-(hydroxymethyl)-2,3-dihydrobenzofuran-5-yl]-4-methyl-6-[[(3R)-1-ethyl-3-piperidyl]amino]-1,2,4-triazin-5-one] |  |  | 966 nM |  |  |
| CCN1CCC[C@@H](Nc2nnc(-c3c(CO)cc4c(c3O)CCO4)n(C)c2=O)C1 (atropisomer, axis not shown) [Example 5a, (M or P)-3-[4-Hydroxy-6-(hydroxymethyl)-2,3-dihydrobenzofuran-5-yl]-4-methyl-6-[[(3R)-1-ethyl-3-piperidyl]amino]-1,2,4-triazin-5-one] |  |  | 84 nM | 103 nM |  |
| CCn1c(-c2c(C)cc3c(c2O)CCO3)nnc(N[C@@H]2CCCN(CCO)C2)c1=O (atropisomer, axis not shown) [Example 9b, (P or M)-4-ethyl-6-[[(3R)-1-(2-hydroxyethyl)-3-piperidyl]amino]-3-(4-hydroxy-6-methyl-2,3-dihydrobenzofuran-5-yl)-1,2,4-triazin-5-one] | 2 | 0.8 ×10⁻⁶ cm/s | 118 nM | 204 nM |  |
| CCN1CCCC(Nc2nnc(-c3c(COC)cc4c(c3O)CCC4)n(C)c2=O)C1 [Example 7b, P-6-[[(3R)-1-ethyl-3-piperidyl]amino]-3-[4-hydroxy-6-(methoxymethyl)indan-5-yl]-4-methyl-1,2,4-triazin-5-one] | 12 | 5.1 ×10⁻⁶ cm/s |  |  |  |
| CCN1CCC[C@@H](Nc2nnc(-c3c(COC)cc4c(c3O)CCO4)n(C)c2=O)C1 (single isomer, unassigned) [Example 6a, (M or P)-3-[4-Hydroxy-6-(methoxymethyl)-2,3-dihydrobenzofuran-5-yl]-4-methyl-6-[[(3R)-1-ethyl-3-piperidyl]amino]-1,2,4-triazin-5-one] |  |  | > 1000 nM |  |  |
| CCN1CCC[C@@H](Nc2nnc(-c3ccc4c(c3O)CCO4)n(C)c2=O)C1 [Reference Example RE-A, 6-[[(3R)-1-Ethyl-3-piperidyl]amino]-3-(4-hydroxy-2,3-dihydrobenzofuran-5-yl)-4-methyl-1,2,4-triazin-5-one, reference compound] |  |  |  |  | 24.9 ×10⁻⁶ cm/s |
| CCN1CCC[C@@H](Nc2nnc(-c3c(COC)cc4c(c3O)CCO4)n(C)c2=O)C1 (single isomer, unassigned) [Example 6b] | 1 | 1.1 ×10⁻⁶ cm/s | 15 nM | 29 nM |  |
| CCN1CCC[C@@H](Nc2nnc(-c3c(C)cc4c(c3O)CCO4)n(CC)c2=O)C1 (atropisomer, axis not shown) [Example 2b, P-4-ethyl-6-[[(3R)-1-ethyl-3-piperidyl]amino]-3-(4-hydroxy-6-methyl-2,3-dihydrobenzofuran-5-yl)-1,2,4-triazin-5-one] | 8 | 3.7 ×10⁻⁶ cm/s |  |  |  |
| CCc1cc2c(c(O)c1-c1nnc(N[C@@H]3CCCN(CC)C3)c(=O)n1C)CCO2 (single isomer, unassigned) [Example 1b] | 11 | 4.5 ×10⁻⁶ cm/s |  |  |  |
